In US9085551B2, “Solid forms of 3-(4-nitro-1-oxisoindolin-2-yl)piperidine-2,6-dione” (Celgene Corporation, priority 2012, dated 2015):
“Also recorded” adds a separate entry of the source.

Experiments:
Assay type in all cases: physicochemical
[1] = Equilibration (slurry) of solid forms in batch solvents, solid analyzed by XRPD
Experimental: Equilibration studies using single, binary and ternary combinations of batch solvents (water, acetone, and acetonitrile) were investigated to mimic key steps in manufacturing 3-(4-nitro-1-oxoisoindolin-2-yl)piperidine-2,6-dione. Materials of 3-(4-nitro-1-oxoisoindolin-2-yl)piperidine-2,6-dione and solvent or solvent mixtures were added to a glass vial to achieve free-flowing slurry and allowed to equilibrate at the specified temperature. […] The solid phase was then dried under air and analyzed by XRPD.
A total of four batches of 3-(4-nitro-1-oxoisoindolin-2-yl)piperidine-2,6-dione were characterized by XRPD, DSC, TGA, ATR-FTIR and DVS, as described in section 6.5. The solid form represented by the batch 1 was designated as Form A; the solid form represented by the batch 4 was designated as Form B; the batches 2 and 3 were determined to be mixtures of Forms A and B, with Form B dominating the patterns. The equilibration experiments were performed using batches 2, 3 and 4, and the results are described in Table 2.
(§1) All of the solid samples generated in the polymorph screen were analyzed by XRPD. XRPD analysis was conducted on a PANalytical Empyrean or a Thermo ARL X'TRA X-ray powder diffractometer using Cu Kα radiation at 1.54 Å.

[2] = Dynamic Vapor Sorption (DVS) hygroscopicity; conditions: for total mass change between 0% and 90% relative humidity: DVS at 25° C., 0% to 90% RH; for hygroscopicity: DVS, 0% to 90% relative humidity; for XRPD pattern after adsorption/desorption cycles: after DVS
Experimental: Hygroscopicity was determined on a Surface Measurement Systems DVS. Typically a sample size of 5-30 mg was loaded into the DVS instrument sample pan and the sample was analyzed on a DVS automated sorption analyzer at 25° C. The relative humidity was increased from 0% to 90% RH at 10% RH step. The relative humidity was then decreased in a similar manner to accomplish a full adsorption/desorption cycle.

[3] = Additional form conversion experiments (heating, slurry), XRPD
Experimental: as §1

Row | SMILES | conversion to other forms ([1]; form conversion studies) | relative thermodynamic stability of the form ([1]; form conversion studies) | total mass change between 0% and 90% relative humidity [2] | hygroscopicity [2] | XRPD pattern after adsorption/desorption cycles [2] | Form by XRPD ([1]; equilibration in acetone, ambient, 8 days) | Form by XRPD ([1]; equilibration in acetone/water (1:1), ambient, 8 days) | Form by XRPD ([1]; equilibration in acetonitrile, 80° C. (or reflux), 6 hours) | Form by XRPD ([1]; equilibration in acetonitrile/water (1:1), ambient, 8 days) | Form by XRPD ([1]; equilibration in acetonitrile/water (2:1), 60° C., 6 hours) | Form by XRPD ([1]; equilibration in acetonitrile/water/acetone (1:1:1), ambient, 8 days) | Form by XRPD ([1]; equilibration in water, ambient, 8 days) | XRPD Result ([3]; heated to 220° C. for 4 hours) | form conversion ([3]; ambient temperature, NMP/acetone/water (1:2.5:2.5), time not stated) | XRPD Result ([3]; slurry in NMP/Acetone/water at ambient for 5 days) | XRPD Result ([3]; slurry in NMP/Acetone/water at ambient for 10 days)
1 | O=C1CCC(N2Cc3c(cccc3[N+](=O)[O-])C2=O)C(=O)N1 (single isomer, unassigned) [Form A, 3-(4-nitro-1-oxoisoindolin-2-yl)piperidine-2,6-dione] | no conversion | most thermodynamically stable form | 0.42% | not hygroscopic | no change | – | – | – | – | – | – | – | – | – | – | –
2 | O=C1CCC(N2Cc3c(cccc3[N+](=O)[O-])C2=O)C(=O)N1 (single isomer, unassigned) [Form B, 3-(4-nitro-1-oxoisoindolin-2-yl)piperidine-2,6-dione] | – | – | 0.39% | not hygroscopic | no change | converts to Form A | converts to Form A | converts to Form A | converts to Form A | converts to Form A | converts to Form A | converts to Form A | converts to Form A | – | – | –
3 | O=C1CCC(N2Cc3c(cccc3[N+](=O)[O-])C2=O)C(=O)N1 (single isomer, unassigned) [Form C, 3-(4-nitro-1-oxoisoindolin-2-yl)piperidine-2,6-dione] | – | – | 0.43% | not hygroscopic | no change | – | – | – | – | – | – | – | partially converts to Form A; also recorded: Form A + C | converts to Form A | Form A + C | Form A + C
